Results: patent US10184115B2, “Mutated cellobiose dehydrogenase with increased substrate specificity” (DIRECTSENS GMBH, priority 2012, dated 2019)

Molecular target: T1, Myriococcum thermophilum cellobiose dehydrogenase (CDH, SEQ ID NO: 1) variant N721D (Thermothelomyces myriococcoides, UniProt A9XK88, N721D)
T1 sequence (A9XK88 22-828 N721D): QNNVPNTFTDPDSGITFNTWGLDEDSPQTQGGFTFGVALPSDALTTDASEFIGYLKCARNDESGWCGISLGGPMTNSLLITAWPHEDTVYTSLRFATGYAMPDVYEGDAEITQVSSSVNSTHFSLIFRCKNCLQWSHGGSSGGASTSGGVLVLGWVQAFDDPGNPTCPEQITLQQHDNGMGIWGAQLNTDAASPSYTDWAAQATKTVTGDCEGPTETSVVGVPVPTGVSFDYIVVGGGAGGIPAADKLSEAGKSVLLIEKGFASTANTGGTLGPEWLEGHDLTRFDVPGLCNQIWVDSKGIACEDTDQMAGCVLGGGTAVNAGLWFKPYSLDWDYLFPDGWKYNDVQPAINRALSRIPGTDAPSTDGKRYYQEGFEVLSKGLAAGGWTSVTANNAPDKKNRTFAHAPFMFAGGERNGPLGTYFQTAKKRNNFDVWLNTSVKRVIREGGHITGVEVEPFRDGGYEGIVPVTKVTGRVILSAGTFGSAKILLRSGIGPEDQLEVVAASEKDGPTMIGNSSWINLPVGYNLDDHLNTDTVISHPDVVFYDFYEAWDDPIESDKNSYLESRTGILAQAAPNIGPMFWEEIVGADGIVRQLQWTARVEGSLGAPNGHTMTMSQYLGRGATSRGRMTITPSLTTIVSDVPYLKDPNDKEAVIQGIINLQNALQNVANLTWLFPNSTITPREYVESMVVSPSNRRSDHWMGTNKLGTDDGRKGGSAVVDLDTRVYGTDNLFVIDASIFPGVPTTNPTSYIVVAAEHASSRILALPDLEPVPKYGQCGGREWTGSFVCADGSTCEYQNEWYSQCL
Experiment: Steady-state kinetics, DCIP assay: M. thermophilum CDH N721D
Type: biochemical
Settings: apparent, pH 4.5, 30° C.
Experimental: Enzyme activity was assayed at 30° C. using either the DCIP (Karapetyan et al., 2005 Journal of Biotechnology 121: 34-48) or cytochrome c (Canevascini et al., 1991, European Journal of Biochemistry 198: 43-52) as electron acceptor. […] Stock solutions of carbohydrates used for kinetic measurements were prepared in the respective buffer and allowed to stand overnight for mutarotation, while stock solutions of electron acceptors were prepared in water and immediately used. The reaction stoichiometry is 1 for the two-electron acceptor DCIP (1 mole of DCIP reduced per mole of carbohydrate oxidized), but 2 for the one-electron acceptor cytochrome c. Kinetic constants were calculated by fitting the observed data to the Henri-Michaelis-Menten equation or to the adapted model for substrate inhibition using nonlinear least-squares regression and the program SigmaPlot (Systat Software, San Jose, Calif., USA). […]
Recombinant wild-type CDH as well as variants were produced in 1 L baffled flasks. […] Increase in activity was monitored using the DCIP and the cytochrome c enzyme assays. […]
The sample was loaded on a 20 mL PHE Sepharose FF column (HR26/20) equilibrated with 50 mM Na-acetate buffer pH 5.5 containing 20% ammonium sulfate. […] Fractions were tested for CDH activity and pooled according to the highest Reinheitszahl (RZ, calculated from the absorbance ratio 420 nm/280 nm). […]

## OC[C@H]1OC(O)[C@H](O)[C@@H](O)[C@@H]1O (some centres unmarked) [Glucose, glucose]
  kcat: 1.9 s⁻¹
  kcat/KM: 5.9 M⁻¹ s⁻¹
